Experimental data: patent US9079913B2, “Spiro-oxindole MDM2 antagonists” (The Regents of the University of Michigan, priority 2009, dated 2015)
Like-named read-outs stand apart in the source and are kept apart here.

Assays:
[1] = molecular target: recombinant human His-tagged MDM2 protein (residues 1-118) (Homo sapiens (Human), UniProt Q00987); assay: Fluorescence-polarization MDM2 binding assay; conditions: Table 19A; FP binding assay; read-out: MDM2 IC50;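 also: fluorescence polarization read after three hours of incubation in potassium phosphate buffer containing bovine gamma globulin and Triton X-100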
Chain of recombinant human His-tagged MDM2 protein (residues 1-118) (Q00987 1-118): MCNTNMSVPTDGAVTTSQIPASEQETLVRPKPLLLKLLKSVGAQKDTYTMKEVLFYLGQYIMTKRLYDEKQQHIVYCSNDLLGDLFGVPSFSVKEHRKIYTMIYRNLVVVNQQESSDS
Description: The assay was performed in the buffer: 100 mM potassium phosphate, pH 7.5; 100 μg/mL bovine gamma globulin; 0.02% sodium azide, 0.01% Triton X-100) and the polarization values were measured after 3 h of incubation using an ULTRA READER (Tecan U.S. Inc., Research Triangle Park, N.C.). […] The Kd value was calculated using the equation: Kd value=IC50−L0/2.
The polarization values were measured after 3 h of incubation. […] Curve fitting was performed using [sequence] PRISM software (GraphPad Software, Inc., San Diego, Calif.). […] Compounds shown in Tables 19A-D as the free base were tested either as the free base or as the CF3CO2H (TFA) or HCl salt.

[2] = tested on: Isogenic HCT-116 colon cancer cell lines; assay: cells; type: cell-based; conditions: Homo sapiens, cell growth;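 also: cells grown in 96-well plates in McCoy's 5A medium with 10% FBS, exposed to compound for 4 days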
Description: Cells were seeded in 96-well flat bottom cell culture plates at a density of 2−3×10^3 cells/well with compounds and incubated for 4 days.

[3] = tested on: cancer cell lines with wild-type p53 / mutated or deleted p53 (ATCC); assay: Cell growth assay (WST-8), other cancer cell lines; type: cell-based; conditions: Homo sapiens
[4] = In vitro microsomal stability, rat; type: in vitro ADME; conditions: for Microsomal stability, % remaining: Rat Microsome, same batch; for microsomal stability (in words) / % of compound remaining when incubated in rat liver microsomes with NADPH: rat liver microsomes; for half-life: rat, liver microsomes, rat liver microsomes with NADPH
[5] = In vitro microsomal stability, human; type: in vitro ADME; conditions: for Microsomal stability, % remaining: Human Microsome, same batch; for microsomal stability (in words) / % of compound remaining when incubated in human liver microsomes with NADPH: human liver microsomes; for half-life: human, liver microsomes, human liver microsomes with NADPH
[6] = Pharmacokinetic studies in rats; type: in vivo, rat; conditions: for oral bioavailability / oral pharmacokinetics in rats (in words): oral dosing; for bioavailability / half-life / AUC(0-t) / Cmax: rat, plasma, male rats, oral dose 15 mg/kg; for AUC(0-t): read-out: AUC(0-t); for Cmax: read-out: Cmax
Description: Pharmacokinetic studies on MDM2 inhibitors were carried out in rat. For comparison, the MDM2 inhibitor, AT-219, was also studied.

[7] = HCT-116, read-out: HCT-116 (p53-/-) IC50, Table 19A, HCT-116 p53-/-
[8] = HCT-116, read-out: HCT-116 (p53 wild-type) IC50, Table 19A, HCT-116 p53 wild-type
[9] = LNCaP, Table 19A, LNCAP cells, p53 wild-type, cell growth, read-out: LNCAP (p53 wild-type) IC50
[10] = PC-3, Table 19A, PC-3 cells, deleted p53, cell growth, read-out: PC-3 (deleted p53) IC50

## CC(C)(C)C[C@H]1N[C@@H](C(=O)NCC[C@H](O)CN2CCCC2)[C@H](c2cccc(Cl)c2)[C@@]12C(=O)Nc1cc(Cl)c(F)cc12 [MI-519-28]
[1]
  IC50: < 2 µM
[2]; [7]
  IC50: > 5 µM
[2]; [8]
  IC50: < 2 µM
[3]; [9]
  IC50: < 2 µM
[3]; [10]
  IC50: 4.1 ± 0.2 µM
[4]; 0 min
  Microsomal stability, % remaining: 100.00%
  % of compound remaining when incubated in rat liver microsomes with NADPH: 100.00%
[4]; 5 min
  Microsomal stability, % remaining: 92.34%
  % of compound remaining when incubated in rat liver microsomes with NADPH: 92.34%
[4]; 10 min
  Microsomal stability, % remaining: 87.59%
  % of compound remaining when incubated in rat liver microsomes with NADPH: 87.59%
[4]; 15 min
  Microsomal stability, % remaining: 86.13%
  % of compound remaining when incubated in rat liver microsomes with NADPH: 86.13%
[4]; 30 min
  Microsomal stability, % remaining: 71.97%
  % of compound remaining when incubated in rat liver microsomes with NADPH: 71.97%
[4]; 45 min
  Microsomal stability, % remaining: 65.40%
  % of compound remaining when incubated in rat liver microsomes with NADPH: 65.40%
[4]; 60 min
  Microsomal stability, % remaining: 61.79%
  % of compound remaining when incubated in rat liver microsomes with NADPH: 61.79%
[4]
  microsomal stability (in words): improved stability over MI-219
  half-life: 1.24 h
[5]; 0 min
  Microsomal stability, % remaining: 100.00%
  % of compound remaining when incubated in human liver microsomes with NADPH: 100.00%
[5]; 5 min
  Microsomal stability, % remaining: 91.87%
  % of compound remaining when incubated in human liver microsomes with NADPH: 91.87%
[5]; 10 min
  Microsomal stability, % remaining: 89.02%
  % of compound remaining when incubated in human liver microsomes with NADPH: 89.02%
[5]; 15 min
  Microsomal stability, % remaining: 77.40%
  % of compound remaining when incubated in human liver microsomes with NADPH: 77.40%
[5]; 30 min
  Microsomal stability, % remaining: 66.83%
  % of compound remaining when incubated in human liver microsomes with NADPH: 66.83%
[5]; 45 min
  Microsomal stability, % remaining: 55.85%
  % of compound remaining when incubated in human liver microsomes with NADPH: 55.85%
[5]; 60 min
  Microsomal stability, % remaining: 53.78%
  % of compound remaining when incubated in human liver microsomes with NADPH: 53.78%
[5]
  microsomal stability (in words): improved stability over MI-219
  half-life: 0.902 h
[6]
  oral bioavailability / oral pharmacokinetics in rats (in words): much inferior oral pharmacokinetic parameters
  bioavailability: 8.4%
  half-life: 1.6 ± 0.2 h
  AUC(0-t): 419 ± 239 µg·h/mL
  Cmax: 102 ± 46 ng/mL

## CC(C)(C)C[C@H]1N[C@@H](C(=O)NCC[C@H](O)CN2CC[C@@H](O)C2)[C@H](c2cccc(Cl)c2)[C@@]12C(=O)Nc1cc(Cl)c(F)cc12 [MI-519-29]
[1]
  IC50: < 1 µM
[2]; [7]
  IC50: > 10 µM
[2]; [8]
  IC50: < 5 µM
[3]; [9]
  IC50: < 5 µM
[3]; [10]
  IC50: > 10 µM
[4]; 0 min
  Microsomal stability, % remaining: 100.00%
  % of compound remaining when incubated in rat liver microsomes with NADPH: 100.00%
[4]; 5 min
  Microsomal stability, % remaining: 93.42%
  % of compound remaining when incubated in rat liver microsomes with NADPH: 93.42%
[4]; 10 min
  Microsomal stability, % remaining: 84.91%
  % of compound remaining when incubated in rat liver microsomes with NADPH: 84.91%
[4]; 15 min
  Microsomal stability, % remaining: 82.81%
  % of compound remaining when incubated in rat liver microsomes with NADPH: 82.81%
[4]; 30 min
  Microsomal stability, % remaining: 70.75%
  % of compound remaining when incubated in rat liver microsomes with NADPH: 70.75%
[4]; 45 min
  Microsomal stability, % remaining: 71.89%
  % of compound remaining when incubated in rat liver microsomes with NADPH: 71.89%
[4]; 60 min
  Microsomal stability, % remaining: 69.91%
  % of compound remaining when incubated in rat liver microsomes with NADPH: 69.91%
[4]
  microsomal stability (in words): improved stability over MI-219
  half-life: 1.02 h
[5]; 0 min
  Microsomal stability, % remaining: 100.00%
  % of compound remaining when incubated in human liver microsomes with NADPH: 100.00%
[5]; 5 min
  Microsomal stability, % remaining: 70.67%
  % of compound remaining when incubated in human liver microsomes with NADPH: 70.67%
[5]; 10 min
  Microsomal stability, % remaining: 56.31%
  % of compound remaining when incubated in human liver microsomes with NADPH: 56.31%
[5]; 15 min
  Microsomal stability, % remaining: 49.52%
  % of compound remaining when incubated in human liver microsomes with NADPH: 49.52%
[5]; 30 min
  Microsomal stability, % remaining: 45.48%
  % of compound remaining when incubated in human liver microsomes with NADPH: 45.48%
[5]; 45 min
  Microsomal stability, % remaining: 40.08%
  % of compound remaining when incubated in human liver microsomes with NADPH: 40.08%
[5]; 60 min
  Microsomal stability, % remaining: 35.28%
  % of compound remaining when incubated in human liver microsomes with NADPH: 35.28%
[5]
  half-life: 0.201 h
[6]
  oral bioavailability / oral pharmacokinetics in rats (in words): much inferior oral pharmacokinetic parameters
  bioavailability: < 1%
  half-life: 6.9 ± 7.5 h
  AUC(0-t): 28 ± 15 µg·h/mL
  Cmax: 51 ± 30 ng/mL

## CC(C)(C)C[C@H]1N[C@@H](C(=O)NCCC(C)(O)CO)[C@H](c2cccc(Cl)c2)[C@@]12C(=O)Nc1cc(Cl)c(F)cc12 (some centres unmarked) [MI-758]
[1]
  IC50: < 1 µM
[2]; [7]
  IC50: 19.1 ± 3.6 µM
[2]; [8]
  IC50: 0.6 µM
[3]; [9]
  IC50: 0.6 µM
[3]; [10]
  IC50: 18.7 ± 7.1 µM
[4]; 0 min
  Microsomal stability, % remaining: 100.00%
  % of compound remaining when incubated in rat liver microsomes with NADPH: 100.00%
[4]; 5 min
  Microsomal stability, % remaining: 96.52%
  % of compound remaining when incubated in rat liver microsomes with NADPH: 96.52%
[4]; 10 min
  Microsomal stability, % remaining: 92.93%
  % of compound remaining when incubated in rat liver microsomes with NADPH: 92.93%
[4]; 15 min
  Microsomal stability, % remaining: 82.50%
  % of compound remaining when incubated in rat liver microsomes with NADPH: 82.50%
[4]; 30 min
  Microsomal stability, % remaining: 73.32%
  % of compound remaining when incubated in rat liver microsomes with NADPH: 73.32%
[4]; 45 min
  Microsomal stability, % remaining: 69.33%
  % of compound remaining when incubated in rat liver microsomes with NADPH: 69.33%
[4]; 60 min
  Microsomal stability, % remaining: 66.93%
  % of compound remaining when incubated in rat liver microsomes with NADPH: 66.93%
[4]
  microsomal stability (in words): improved stability over MI-219
  half-life: 1.33 h
[5]; 0 min
  Microsomal stability, % remaining: 100.00%
  % of compound remaining when incubated in human liver microsomes with NADPH: 100.00%
[5]; 5 min
  Microsomal stability, % remaining: 95.88%
  % of compound remaining when incubated in human liver microsomes with NADPH: 95.88%
[5]; 10 min
  Microsomal stability, % remaining: 89.21%
  % of compound remaining when incubated in human liver microsomes with NADPH: 89.21%
[5]; 15 min
  Microsomal stability, % remaining: 81.61%
  % of compound remaining when incubated in human liver microsomes with NADPH: 81.61%
[5]; 30 min
  Microsomal stability, % remaining: 65.20%
  % of compound remaining when incubated in human liver microsomes with NADPH: 65.20%
[5]; 45 min
  Microsomal stability, % remaining: 54.52%
  % of compound remaining when incubated in human liver microsomes with NADPH: 54.52%
[5]; 60 min
  Microsomal stability, % remaining: 51.45%
  % of compound remaining when incubated in human liver microsomes with NADPH: 51.45%
[5]
  microsomal stability (in words): improved stability over MI-219
  half-life: 0.825 h
[6]
  oral bioavailability / oral pharmacokinetics in rats (in words): good oral bioavailability and pharmacokinetic parameters
  bioavailability: 38%
  half-life: 1.9 ± 0.1 h
  AUC(0-t): 4280 ± 2690 µg·h/mL
  Cmax: 1490 ± 1120 ng/mL
